Measurements from ChEMBL document CHEMBL1201862, “PubChem BioAssay data set” (2004).
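96-well plates; 48 h exposure; 5 concentrations. Endpoints by linear interpolation between flanking doses. Not reached: highest tested concentration assigned. The concentration for 50% growth inhibition is given as GI50.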 Calls of active or inactive are those of the source. Cut-off read from the data, not from the text of the source: active = GI50 up to about 1.1 µM and inactive = higher.

Assays:
Assay in all cases: growth of human tumour cells (NCI), 48 h
NCI-H23 = test system: NCI-H23
SNB-19 = test system: SNB-19
SF-268 = test system: SF-268
PC-3 = test system: PC-3
DU-145 = test system: DU-145
HOP-92 = test system: HOP-92
MDA-N = test system: MDA-N
A498 = test system: A498
Malme-3M = test system: Malme-3M
CCRF-CEM = test system: CCRF-CEM
OVCAR-5 = test system: OVCAR-5
ACHN = test system: ACHN
HOP-62 = test system: HOP-62
HCT-116 = test system: HCT-116
SR = test system: SR
UACC-62 = test system: UACC-62
K562 = test system: K562
SNB-75 = test system: SNB-75

Structure (SMILES)	GI50 (NCI-H23)	GI50 (SNB-19)	GI50 (SF-268)	GI50 (PC-3)	GI50 (DU-145)	GI50 (HOP-92)	GI50 (MDA-N)	GI50 (A498)	GI50 (Malme-3M)	GI50 (CCRF-CEM)	GI50 (OVCAR-5)	GI50 (ACHN)	GI50 (HOP-62)	GI50 (HCT-116)	GI50 (SR)	GI50 (UACC-62)	GI50 (K562)	GI50 (SNB-75)
COc1cccc(/C=C2\S/C(=N/Nc3nc(-c4ccc([N+](=O)[O-])cc4)cs3)NC2=O)c1O	11.7 µM (inactive)	5.19 µM (inactive)	5 µM (inactive)	16.1 µM (inactive)	21.9 µM (inactive)	10.3 µM (inactive)	22.2 µM (inactive)	23.4 µM (inactive)	20.5 µM (inactive)	9.89 µM (inactive)	25.3 µM (inactive)	17.3 µM (inactive)	15.3 µM (inactive)	13.1 µM (inactive)	12 µM (inactive)	–	–	–
CCOC(=O)CCN1C(=O)c2c(NC(=O)C(=O)O)cccc2S1(=O)=O	> 100 µM (inactive)	> 100 µM (inactive)	> 100 µM (inactive)	> 100 µM (inactive)	> 100 µM (inactive)	> 100 µM (inactive)	> 100 µM (inactive)	> 100 µM (inactive)	> 100 µM (inactive)	> 100 µM (inactive)	> 100 µM (inactive)	> 100 µM (inactive)	> 100 µM (inactive)	> 100 µM (inactive)	> 100 µM (inactive)	> 100 µM (inactive)	> 100 µM (inactive)	–
COC(=O)c1ccc(NC(=O)c2cc3c(cc2Br)OCO3)o1	> 100 µM (inactive)	> 100 µM (inactive)	0.471 µM (active)	> 100 µM (inactive)	> 100 µM (inactive)	26.5 µM (inactive)	42.5 µM (inactive)	> 100 µM (inactive)	–	> 100 µM (inactive)	> 100 µM (inactive)	> 100 µM (inactive)	> 100 µM (inactive)	> 100 µM (inactive)	41.4 µM (inactive)	> 100 µM (inactive)	63.2 µM (inactive)	–
Cc1nc(Cl)c(C)c(Cl)n1	35.3 µM (inactive)	> 100 µM (inactive)	> 100 µM (inactive)	> 93.3 µM (inactive)	> 100 µM (inactive)	–	18.8 µM (inactive)	> 100 µM (inactive)	> 100 µM (inactive)	18.7 µM (inactive)	> 100 µM (inactive)	> 100 µM (inactive)	> 77.4 µM (inactive)	> 100 µM (inactive)	0.254 µM (active)	> 80.4 µM (inactive)	18.3 µM (inactive)	> 100 µM (inactive)
O=C(O)C1CCCCC1C(=O)Nc1nc2ccccc2[nH]1 (configuration not stated)	> 100 µM (inactive)	> 100 µM (inactive)	> 100 µM (inactive)	> 100 µM (inactive)	> 100 µM (inactive)	> 100 µM (inactive)	> 100 µM (inactive)	> 100 µM (inactive)	> 100 µM (inactive)	> 100 µM (inactive)	> 100 µM (inactive)	> 100 µM (inactive)	> 100 µM (inactive)	> 100 µM (inactive)	> 100 µM (inactive)	> 100 µM (inactive)	–	> 100 µM (inactive)
O=[N+]([O-])/C(C(Cl)=C(Cl)Cl)=C(/Br)SCc1ccccc1	3.22 µM (inactive)	10.4 µM (inactive)	2.52 µM (inactive)	2.79 µM (inactive)	12.9 µM (inactive)	1.77 µM (inactive)	1.87 µM (inactive)	7.01 µM (inactive)	2.88 µM (inactive)	0.277 µM (active)	5.71 µM (inactive)	2.64 µM (inactive)	15.5 µM (inactive)	1.73 µM (inactive)	0.375 µM (active)	3.42 µM (inactive)	0.467 µM (active)	2.56 µM (inactive)
O=C1/C(=C\c2cccc(Oc3ccccc3)c2)S(=O)(=O)C(c2ccccc2)N1c1ccccc1Cl (configuration not stated)	24.4 µM (inactive)	16.1 µM (inactive)	–	29 µM (inactive)	36.1 µM (inactive)	17.9 µM (inactive)	21.2 µM (inactive)	45.6 µM (inactive)	32.6 µM (inactive)	19.1 µM (inactive)	33.7 µM (inactive)	27.8 µM (inactive)	26.4 µM (inactive)	15.4 µM (inactive)	17.9 µM (inactive)	25.2 µM (inactive)	14.5 µM (inactive)	20 µM (inactive)
CC(NC(=O)OC(C)(C)C)C(=O)NC1CCCC1 (configuration not stated)	> 100 µM (inactive)	> 100 µM (inactive)	> 100 µM (inactive)	> 100 µM (inactive)	> 100 µM (inactive)	> 100 µM (inactive)	> 100 µM (inactive)	> 100 µM (inactive)	> 100 µM (inactive)	> 100 µM (inactive)	> 100 µM (inactive)	> 100 µM (inactive)	–	> 100 µM (inactive)	> 100 µM (inactive)	–	> 100 µM (inactive)	> 100 µM (inactive)
Cc1ccc(S(=O)(=O)n2cc(C=O)c(-c3cn(S(=O)(=O)c4ccc(C)cc4)cc3-c3cn(S(=O)(=O)c4ccc(C)cc4)cc3C=O)c2)cc1	23.7 µM (inactive)	50.2 µM (inactive)	> 100 µM (inactive)	27.5 µM (inactive)	69.3 µM (inactive)	45.4 µM (inactive)	75.2 µM (inactive)	> 100 µM (inactive)	24.3 µM (inactive)	17.9 µM (inactive)	85.3 µM (inactive)	–	> 100 µM (inactive)	28 µM (inactive)	13.6 µM (inactive)	48.1 µM (inactive)	24.3 µM (inactive)	29.6 µM (inactive)
O=[N+]([O-])c1ccc2c(c1)c1nn2CCCCOc2nn(c3ccc([N+](=O)[O-])cc23)CCCCO1	> 100 µM (inactive)	> 100 µM (inactive)	> 100 µM (inactive)	> 100 µM (inactive)	> 100 µM (inactive)	> 100 µM (inactive)	> 100 µM (inactive)	> 100 µM (inactive)	> 100 µM (inactive)	–	> 100 µM (inactive)	> 100 µM (inactive)	0.743 µM (active)	> 100 µM (inactive)	> 100 µM (inactive)	–	> 100 µM (inactive)	> 100 µM (inactive)
Cc1ccc(/N=N/C(=N\c2ccc(F)cc2)c2ccc(N(CCC#N)CCC#N)cc2)cc1	> 100 µM (inactive)	> 100 µM (inactive)	> 100 µM (inactive)	51.6 µM (inactive)	> 100 µM (inactive)	> 100 µM (inactive)	> 100 µM (inactive)	> 100 µM (inactive)	–	97.5 µM (inactive)	> 100 µM (inactive)	> 100 µM (inactive)	> 100 µM (inactive)	74.1 µM (inactive)	74.3 µM (inactive)	> 100 µM (inactive)	> 100 µM (inactive)	> 100 µM (inactive)
CCOC(=O)N1C(=S)C(C(=O)OC)(C(=O)OC)N=C1C	> 100 µM (inactive)	> 100 µM (inactive)	–	> 100 µM (inactive)	> 100 µM (inactive)	> 100 µM (inactive)	> 100 µM (inactive)	> 100 µM (inactive)	–	> 100 µM (inactive)	> 100 µM (inactive)	> 100 µM (inactive)	> 100 µM (inactive)	> 100 µM (inactive)	> 100 µM (inactive)	> 100 µM (inactive)	> 100 µM (inactive)	> 100 µM (inactive)
O=C1O/C(=C\c2ccc(O)c(Br)c2)C(c2ccc(O)c(Cl)c2)=C1Br	17.3 µM (inactive)	18.3 µM (inactive)	14.3 µM (inactive)	11.7 µM (inactive)	18.8 µM (inactive)	15.4 µM (inactive)	16.8 µM (inactive)	19.5 µM (inactive)	17.9 µM (inactive)	12.3 µM (inactive)	18.6 µM (inactive)	15.2 µM (inactive)	19.9 µM (inactive)	13.7 µM (inactive)	5.86 µM (inactive)	13.9 µM (inactive)	17.3 µM (inactive)	–
C/C(Nc1ccc(Cl)cc1)=C1/CCOC1=O	> 100 µM (inactive)	> 100 µM (inactive)	> 100 µM (inactive)	> 43.7 µM (inactive)	6.31 µM (inactive)	> 100 µM (inactive)	92.5 µM (inactive)	> 100 µM (inactive)	> 100 µM (inactive)	1.55 µM (inactive)	> 20.5 µM (inactive)	13.7 µM (inactive)	–	–	21.5 µM (inactive)	0.168 µM (active)	0.346 µM (active)	> 67.8 µM (inactive)
CN(C(=O)CCC(=O)O)c1ccccc1C(=O)O	> 100 µM (inactive)	> 100 µM (inactive)	> 100 µM (inactive)	> 100 µM (inactive)	> 100 µM (inactive)	> 100 µM (inactive)	> 100 µM (inactive)	> 100 µM (inactive)	> 100 µM (inactive)	> 100 µM (inactive)	> 100 µM (inactive)	> 100 µM (inactive)	–	> 100 µM (inactive)	> 100 µM (inactive)	> 100 µM (inactive)	> 100 µM (inactive)	> 100 µM (inactive)
C[C@]12CC[C@H]3[C@@H](CC=C4C[C@@H](O)CC[C@@]43C)[C@@H]1C/C(=C\c1ccncc1)[C@@H]2O	13.7 µM (inactive)	21.2 µM (inactive)	21.2 µM (inactive)	19.1 µM (inactive)	23.1 µM (inactive)	2 µM (inactive)	21.8 µM (inactive)	13.9 µM (inactive)	22.6 µM (inactive)	19.5 µM (inactive)	32.7 µM (inactive)	16.9 µM (inactive)	29.9 µM (inactive)	18.7 µM (inactive)	8.87 µM (inactive)	15.4 µM (inactive)	15.8 µM (inactive)	27.1 µM (inactive)
